{"source": "paper PMC6323428", "about": "“Elucidation of the Intestinal Absorption Mechanism of Loganin in the Human Intestinal Caco-2 Cell Model” (Evidence-based Complementary and Alternative Medicine : eCAM, 2018)", "key": {"[1]": {"system": "human intestinal Caco-2 cells", "test": "MTT cytotoxicity (cell viability) assay", "assay_type": "cell-based", "settings": "for Survival Rates: n = 5, mean ± SD", "experimental": "Cell viability was assessed using an MTT assay. Briefly, 0.1 mL of human intestinal Caco-2 cells was seeded onto 96-well plates at a density of 1×10^5 cells per well in a 96-well plate. The cells were grown in an atmosphere with 5% CO2 and 95% relative humidity over approximately 48 h. Subsequently, the culture medium was replaced with HBSS containing different concentrations of loganin (0.1-200 μM); the final concentration of dimethyl sulfoxide (DMSO) in HBSS remained at <1%. The negative control was HBSS containing 1% DMSO. […] Then, 0.2 mL of 0.5mg/mL MTT solution was added to each well and incubated for 4 h in dark. The medium was then removed, the MTT-formazan crystals were solubilized by incubating with 150 μL of DMSO with gentle shaking for 10 min, and absorbance was determined at 490 nm in a Multiskan Spectrum microplate reader (Thermo Labsystems, MA, USA). In each MTT assay, every sample was tested in five replicates and the viability of the nontreated control cells was arbitrarily defined as 100%."}, "BCRP [2]": {"target": "T1, BCRP (Homo sapiens, UniProt Q9UNQ0)", "T1 construct": "endogenous in cells; host or cells: Caco-2 monolayers", "T1 sequence (Q9UNQ0 1-655)": "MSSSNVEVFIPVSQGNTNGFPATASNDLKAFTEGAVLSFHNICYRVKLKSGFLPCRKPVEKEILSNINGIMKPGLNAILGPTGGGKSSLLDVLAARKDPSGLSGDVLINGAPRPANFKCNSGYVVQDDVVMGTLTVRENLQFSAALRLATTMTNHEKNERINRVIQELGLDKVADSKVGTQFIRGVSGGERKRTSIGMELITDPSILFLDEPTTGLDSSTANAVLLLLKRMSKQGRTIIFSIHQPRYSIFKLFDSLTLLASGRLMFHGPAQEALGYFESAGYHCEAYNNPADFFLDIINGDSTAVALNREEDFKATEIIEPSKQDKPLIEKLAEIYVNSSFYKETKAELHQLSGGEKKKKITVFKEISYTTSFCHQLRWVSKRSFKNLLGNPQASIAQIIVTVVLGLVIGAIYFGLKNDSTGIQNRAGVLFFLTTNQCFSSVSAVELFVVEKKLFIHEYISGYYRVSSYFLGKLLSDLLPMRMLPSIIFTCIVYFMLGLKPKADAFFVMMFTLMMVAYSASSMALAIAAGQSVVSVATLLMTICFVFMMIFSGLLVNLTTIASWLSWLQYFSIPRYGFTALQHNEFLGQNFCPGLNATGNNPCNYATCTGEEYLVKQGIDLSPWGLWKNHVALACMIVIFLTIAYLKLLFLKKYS", "test": "Loganin transport across Caco-2 monolayers with BCRP inhibitor apigenin", "assay_type": "in vitro ADME", "design": "key to Modulatory effect: +: Indicates that the inhibitor has significant effect on the loganin transport", "experimental": "(§1) Before the experiments, the human intestinal Caco-2 cell monolayers were washed twice with HBSS medium (pH 7.4). The transport experiments were conducted by adding the drug solutions (containing 1% DMSO) to either the apical (AP, 0.5 mL) or basolateral side (BL, 1.0 mL), while the receiving chamber contained the corresponding volume of blank HBSS medium. The monolayers were incubated at 37°C, and 50 μL samples were taken at 15, 30, 45, 60, 90, and 120 min from the acceptor compartment, and the volume was then immediately replaced with50 μL of fresh, prewarmed blank HBSS. TEER measurements for assessing the membrane integrity took place before and after the experiment. The samples were frozen immediately and stored below −80°C before analysis.\n(§2) Several efflux and influx transporters were investigated for their effects on the transport flux of loganin. One hundred μM verapamil was added to evaluate the selectivity of P-glycoprotein (P-gp); inhibiting the efflux by multidrug resistance-associated proteins (MRPs) was undertaken by adding 100μM MK571, 50μM benzbromarone, and 200μM indomethacin [21–23]; 25 μM apigenin was used to investigate breast cancer resistance protein (BCRP); 50 μM sodium vanadate and cimetidine were used as Na^+/K^+pump and […] inhibitors.\n(§3) UPLC-MS/MS data acquisition was performed using Analyst 1.5.2 and MultiQuant 2.1.1 software (Applied Biosystems). The data were analyzed by SPSS Software. The apparent permeability coefficient (Papp) was calculated according to Papp = (dQ/dt)/(A·C0)\n(§4) where dQ/dt is the steady-state flux (nmol/s), A is the surface area of the insert (cm^2); C0 is the initial concentration. The efflux ratio (P) was determined by calculating the ratio of PappBA versus PappAB as in(1) P=PappBA/PappAB Statistical analysis was performed with analysis of variance (ANOVA) after confirmation of normal distributions."}, "BCRP [3]": {"system": "T2, BCRP", "T2 construct": "endogenous in cells; host or cells: Caco-2 monolayers", "test": "Loganin transport across Caco-2 monolayers with BCRP inhibitor apigenin", "assay_type": "in vitro ADME, human", "design": "key to Modulatory effect: +: Indicates that the inhibitor has significant effect on the loganin transport", "settings": "human, Caco-2, pH 7.4; with apigenin 25 μM, loganin 20 μM, n = 3", "experimental": "as §1, §2, §3, §4"}, "MRPs": {"system": "MRPs", "test": "Loganin transport across Caco-2 monolayers with MRPs inhibitor MK 571", "assay_type": "in vitro ADME, human", "design": "key to Modulatory effect: +: Indicates that the inhibitor has significant effect on the loganin transport", "experimental": "as §1, §2, §3, §4"}, "OATs": {"system": "OATs", "test": "Loganin transport across Caco-2 monolayers with OATs inhibitor cimetidine", "assay_type": "in vitro ADME, human", "experimental": "as §1, §2, §3, §4"}, "MRP2, MRP3": {"system": "MRP2, MRP3", "test": "Loganin transport across Caco-2 monolayers with MRP2/MRP3 inhibitor benzbromarone", "assay_type": "in vitro ADME, human", "design": "key to Modulatory effect: +: Indicates that the inhibitor has significant effect on the loganin transport", "experimental": "as §1, §2, §3, §4"}, "[4]": {"settings": "human, Caco-2, pH 7.4, with MK571 100 μM, with MK 571 100 μM, loganin 20 μM, n = 3"}, "[5]": {"settings": "with 100 μM MK 571, 20 μM loganin"}, "[6]": {"settings": "human, Caco-2, pH 7.4, with cimetidine 50 μM, loganin 20 μM, n = 3"}, "[7]": {"settings": "human, Caco-2, pH 7.4, with benzbromarone 50 μM, loganin 20 μM, n = 3"}}}
{"smiles": "COC(=O)C1=CO[C@@H](O[C@@H]2O[C@H](CO)[C@@H](O)[C@H](O)[C@H]2O)[C@@H]2[C@@H](C)[C@@H](O)C[C@H]12", "note": "[loganin, Loganin]", "values": [{"measurement": "Survival Rates", "setting": "[1]; loganin 5 μM, MTT", "value": "106.57±8.3", "unit": "%"}, {"measurement": "Survival Rates", "setting": "[1]; loganin 10 μM, MTT", "value": "106.22±10.9", "unit": "%"}, {"measurement": "Survival Rates", "setting": "[1]; loganin 50 μM, MTT", "value": "103.45±3.3", "unit": "%"}, {"measurement": "Survival Rates", "setting": "[1]; loganin 100 μM, MTT", "value": "101.45±6.5", "unit": "%"}, {"measurement": "Inhibition of Caco-2 cells", "setting": "[1]; loganin 200 μM, MTT", "value": 4.67, "unit": "%"}, {"measurement": "Survival Rates", "setting": "[1]; loganin 200 μM, MTT", "value": "95.33±5.3", "unit": "%"}, {"measurement": "Toxicity to Caco-2 cells (in words)", "setting": "[1]; loganin 0.1 to 100 μM, after 4 h exposure (so in the source)", "value": "nontoxic"}, {"measurement": "efflux ratio at 120 min", "setting": "BCRP [2]; human, Caco-2, pH 7.4, with apigenin 25 μM, read-out: P (efflux ratio PappBA/PappAB)", "value": 0.41}, {"measurement": "Substrate of BCRP (in words)", "setting": "BCRP [2]; judged from apigenin vs control", "value": "substrate"}, {"measurement": "Modulatory effect", "setting": "BCRP [2]; with apigenin 25 μM", "value": "+"}, {"measurement": "Papp A→B at 120 min, 20 μM", "setting": "BCRP [3]", "value": "30.1 ± 6.2", "unit": "×10⁻⁶ cm/s"}, {"measurement": "Papp B→A at 120 min, 20 μM", "setting": "BCRP [3]", "value": "12.3 ± 2.5", "unit": "×10⁻⁶ cm/s"}, {"measurement": "Increase of transport from the apical to the basolateral side", "setting": "MRPs; after addition of a MRP inhibitor (not named in the abstract), vs control", "value": 2.09, "unit": "fold"}, {"measurement": "Papp A→B at 120 min, 20 μM", "setting": "MRPs; [4]", "value": "27.2 ± 4.1", "unit": "×10⁻⁶ cm/s"}, {"measurement": "Papp B→A at 120 min, 20 μM", "setting": "MRPs; [4]", "value": "3.9 ± 0.2", "unit": "×10⁻⁶ cm/s"}, {"measurement": "efflux ratio at 120 min, 20 μM", "setting": "MRPs; human, Caco-2, pH 7.4, with MK571 100 μM, with MK 571 100 μM, read-out: P (efflux ratio PappBA/PappAB)", "value": 0.14}, {"measurement": "PappAB relative to control group", "setting": "MRPs; [5]", "value": "~2", "unit": "fold"}, {"measurement": "Reduction of PappBA vs control", "setting": "MRPs; [5]", "value": 66.7, "unit": "%"}, {"measurement": "Modulatory effect", "setting": "MRPs; with MK 571 100 μM", "value": "+"}, {"measurement": "efflux ratio at 120 min, 20 μM", "setting": "OATs; human, Caco-2, pH 7.4, with cimetidine 50 μM, read-out: P (efflux ratio PappBA/PappAB)", "value": 0.9}, {"measurement": "Papp A→B at 120 min, 20 μM", "setting": "OATs; [6]", "value": "11 ± 1.5", "unit": "×10⁻⁶ cm/s"}, {"measurement": "Papp B→A at 120 min, 20 μM", "setting": "OATs; [6]", "value": "9.9 ± 2", "unit": "×10⁻⁶ cm/s"}, {"measurement": "Effect on Papp values (in words)", "setting": "OATs; pretreatment with 50 μM cimetidine", "value": "no significant effects"}, {"measurement": "efflux ratio at 120 min, 20 μM", "setting": "MRP2, MRP3; human, Caco-2, pH 7.4, with benzbromarone 50 μM, read-out: P (efflux ratio PappBA/PappAB)", "value": 0.23}, {"measurement": "Papp A→B at 120 min, 20 μM", "setting": "MRP2, MRP3; [7]", "value": "29.5 ± 5.9", "unit": "×10⁻⁶ cm/s"}, {"measurement": "Papp B→A at 120 min, 20 μM", "setting": "MRP2, MRP3; [7]", "value": "6.7 ± 0.9", "unit": "×10⁻⁶ cm/s"}, {"measurement": "Modulatory effect", "setting": "MRP2, MRP3; with benzbromarone 50 μM", "value": "+"}]}
